Tests used:
[1] = system: whole blood; experiment: Tissue factor initiated whole blood assay, thrombin (TAT) at 20 minutes, historical record of treated individuals/blood; parameters: species or system human
[2] = INR of individuals on coumadin therapy; type: in vivo, human
Method: Thrombin is illustrated for the group of 13 healthy individuals (♦/⋄, column 1), with the 6-month time period for subject 10 (⋄) illustrated. […] An historical record of whole blood data for individuals on coumadin therapy (●/∘) is seen in column 3. […] Individuals with hemophilia A; or induced hemophilia B; with (Δ) and without (▴) in vitro replacement were reevaluated for their 20 minute time point and are seen in column 4. Two individuals with factor XI deficiency (▪) at low tissue factor are shown in column 5. Thrombin generation from blood treated with anti platelet IIbIIIa therapeutics (*), ReoPro and Integrellin are represented in column 6.

[3] = one individual on coumadin therapy over a 6 month time period

## CC(=O)CC(c1ccccc1)c1c(O)c2ccccc2oc1=O (stereo not drawn) [Coumadin]
[1]; mean per group, repeated measures on individuals averaged, 20 min
  TAT level, Mean: 273.5
[1]; [3]
  mean thrombin: 166.6 ± 121.3 nM
  variation of thrombin levels: approximately 325 nM
[1]; one individual on coumadin therapy, stable INR, studied 10 times over 6 months, 20 min
  thrombin levels (range): 9.3 to 334.7 nM
[2]; group of 7 individuals stably anticoagulated on coumadin, studied once
  INR: 2.3±0.5
[2]; one individual on coumadin therapy studied 10 times over 6 months
  INR: 2.1±0.4

Reference: patent US7235377B2, “Global test of the hemostatic system” (The University of Vermont and State Agriculture College, priority 2003, dated 2007)
